Laboratory results as given in article PMC9515952, “Tentative exploration of pharmacodynamic substances: Pharmacological effects, chemical compositions, and multi-components pharmacokinetic characteristics of ESZWD in CHF-HKYd rats” (Frontiers in Cardiovascular Medicine, 2022).
Like-named read-outs stand apart in the source and are kept apart here.

Assays:
[1] = Pharmacokinetics of four components of ESZWD in CHF-HKYd rat serum by UPLC-MS/MS; format: in vivo; design: AUC(0-t) / AUC(0−t) / AUC(0-inf) / AUC(0−∞): concentration or dose not given beside the values; settings: CHF-HKYd rat serum after oral administration of ESZWD, mean ± SD, n = 6
Procedure: All rats were randomly divided into control group, model group, ESZWD low-dose (3.96 g/kg), medium-dose (7.92 g/kg), high-dose (15.84 g/kg) groups, and positive control group (benazepril, 0.5 mg/kg), with six rats in each group. The CHF-HKYd was established after 1 week of feeding. ESZWD and benazepril were administered by gavage separately for 4 weeks after successful modeling, except for the control group. Blood was collected for 5, 10, 20, 30, 45 min, 1, 2, 4, 6, 8, 12, and 24 h, standing for 2 h and centrifuged at 4°C, 3,500 rpm for 10 min, the supernatant was retained. The state of rats was observed and the urine volume at 24 h was measured. The structure and function of rat heart were evaluated by doppler ultrasonography. Serum biomarkers including myocardial injury indicators NT-proBNP, angiotensinII (AngII), aldosterone (ALD), reactive oxygen species (ROS), superoxide dismutase (SOD), malondialdehyde (MDA), and tumor necrosis factor α (TNF-α) and interleukin 6 (IL-6) were detected by ELISA.
Chromatographic analysis was performed using ACQUITY UPLC BEH C18 column (2.1 × 50 mm, […]), the mobile phase was acetonitrile (A) 0.1% formic acid water (B), the flow rate was set as 0.2 mL·min^−1, the column temperature was 35°C, the injection volume was 2 μL, and the gradient conditions were as follows: 0–8 min: 6–11%A, 8–23 min: 11–19%A, 23–45 min: 19–38%A, 45–55 min: 38–47%A, 55–55.1 min: 47–52%A, 55.1–65 min: 52–90%A, 65–66 min: 90–6%A of UPLC-Q-TOF/MS analysis and 0–3 min: 8–10%A, 3–3.5 min: 10–70% A, 3.5–5: 70–80%A, 5–5.1 min: 80–8% A, 5.1–6 min: 8% A of UPLC-MS/MS.
Mass spectrometric detection of UPLC-MS/MS analysis was carried out on electrospray ionization (ESI) ion source, multiple reaction monitoring (MRM) mode, ion spray voltage of 5,500 V, the curtain gas and collision gas were 40 and 9 kPa, respectively, declustering potential (DP) and collision voltage (CE) are shown in Table 1.

[2] = Stability of four compounds in rat serum (UPLC-MS/MS method validation); settings: n = 5; for Stability, Room temperature, Mean ± SD: 4 h at room temperature (25°C); for Stability, Automatic sampler, Mean ± SD: 8 h in the automatic sampler; for Stability, Long-term freeze, Mean ± SD: 7 d at −80°C; for Stability, Multigelation, Mean ± SD: three freeze and thaw cycles
Procedure: The stability of all probe drugs was evaluated by LQC and HQC samples under different experimental conditions, including short-term stability [4 h at room temperature (25°C), 8 h in the automatic sampler, and three freeze and thaw cycles, respectively] and long-term stability (7 d at −80°C).

[3] = added 20 ng/mL (salsolinol) or 1 ng/mL (others)
[4] = added 100 ng/mL (salsolinol) or 10 ng/mL (others)
[5] = added 750 ng/mL (salsolinol) or 150 ng/mL (others)

| Compound | AUC(0−t) [1] | AUC(0−∞) [1] | CL/F [1] | Cmax [1] | T1/2 [1] | Tmax [1] | V/F [1] | Stability, Room temperature, Mean ± SD [2, 3] | Stability, Room temperature, Mean ± SD [2, 4] | Stability, Room temperature, Mean ± SD [2, 5] | Stability, Automatic sampler, Mean ± SD [2, 3] | Stability, Automatic sampler, Mean ± SD [2, 4] | Stability, Automatic sampler, Mean ± SD [2, 5] | Stability, Long-term freeze, Mean ± SD [2, 3] | Stability, Long-term freeze, Mean ± SD [2, 4] | Stability, Long-term freeze, Mean ± SD [2, 5] | Stability, Multigelation, Mean ± SD [2, 3] | Stability, Multigelation, Mean ± SD [2, 4] | Stability, Multigelation, Mean ± SD [2, 5] | also measured |
| --- | --- | --- | --- | --- | --- | --- | --- | --- | --- | --- | --- | --- | --- | --- | --- | --- | --- | --- | --- | --- |
| Miltrione | 1,098 ± 69.72 ng/mL·h | 1,125 ± 84.73 ng/mL·h | 17.87 ± 1.38 L/h/kg | 178.9 ± 16.24 ng/mL | 4.25 ± 0.82 h | 1.00 ± 0.00 h | 108.7 ± 15.80 L/kg |  |  |  |  |  |  |  |  |  |  |  |  |  |
| CCN1C[C@]2(COC)[C@H](O)C[C@H](OC)[C@@]34[C@@H]5C[C@@]6(O)[C@H](OC(=O)c7ccccc7)[C@@H]5[C@@](OC(C)=O)([C@@H]([C@H](OC)[C@H]23)[C@@H]14)[C@@H](O)[C@@H]6OC [Aconitine] |  |  |  |  |  |  | 2679 ± 1574 L/kg | 1.049 ± 0.05 ng/mL | 9.558 ± 0.29 ng/mL | 163.7 ± 5.25 ng/mL | 1.087 ± 0.12 ng/mL | 9.053 ± 0.24 ng/mL | 162.6 ± 9.72 ng/mL | 1.082 ± 0.05 ng/mL | 10.05 ± 0.97 ng/mL | 157.4 ± 3.86 ng/mL | 1.125 ± 0.11 ng/mL | 9.042 ± 0.48 ng/mL | 156.9 ± 8.39 ng/mL | AUC(0-inf) ([1]; Sprague-Dawley (SD), in vivo): 50.1 ± 16 ng·h/mL; AUC(0-t) ([1]; Sprague-Dawley (SD), in vivo): 48.9 ± 16.4 ng·h/mL; half-life ([1]; Sprague-Dawley (SD), in vivo): 4.24 ± 1.83 h; CL/F ([1]; Sprague-Dawley (SD), in vivo, read-out: CL/F (converted)): 425 L/h/kg; Cmax ([1]; Sprague-Dawley (SD), in vivo, read-out: Cmax): 8.96 ± 2.22 ng/mL; Tmax ([1]; Sprague-Dawley (SD), in vivo, read-out: Tmax): 0.75 h; half-life ([1]; Sprague-Dawley, in vivo): ~4 h |
| C[C@@H]1NCCc2cc(O)c(O)cc21 [Salsolinol] | 2,327 ± 261.0 ng/mL·h | 2,344 ± 265.7 ng/mL·h | 8.625 ± 0.96 L/h/kg | 314.2 ± 36.84 ng/mL | 3.271 ± 0.58 h | 1.25 ± 0.59 h | 40.68 ± 9.03 L/kg | 21.07 ± 0.74 ng/mL | 112.2 ± 4.13 ng/mL | 700.5 ± 49.6 ng/mL | 20.68 ± 0.61 ng/mL | 111.3 ± 2.63 ng/mL | 716.3 ± 22.1 ng/mL | 20.9 ± 1.2 ng/mL | 103.9 ± 6.16 ng/mL | 685.1 ± 43.66 ng/mL | 21.15 ± 0.54 ng/mL | 110.7 ± 1.34 ng/mL | 727.6 ± 68.05 ng/mL | T1/2 ([1]; listed as salsolinol): about 3 h |
